What is called IC50 is the concentration that gives 50% inhibition.

The assay concerns the target T1, GST-RIPK1 (recombinant GST-RIPK1 kinase domain (residues 1-327)) (Homo sapiens, UniProt Q13546).
T1 construct: recombinant GST-RIPK1 kinase domain (residues 1-327) enzyme; made in house; host or cells: baculovirus-transfected Sf21 insect cells
T1 sequence (Q13546 1-327): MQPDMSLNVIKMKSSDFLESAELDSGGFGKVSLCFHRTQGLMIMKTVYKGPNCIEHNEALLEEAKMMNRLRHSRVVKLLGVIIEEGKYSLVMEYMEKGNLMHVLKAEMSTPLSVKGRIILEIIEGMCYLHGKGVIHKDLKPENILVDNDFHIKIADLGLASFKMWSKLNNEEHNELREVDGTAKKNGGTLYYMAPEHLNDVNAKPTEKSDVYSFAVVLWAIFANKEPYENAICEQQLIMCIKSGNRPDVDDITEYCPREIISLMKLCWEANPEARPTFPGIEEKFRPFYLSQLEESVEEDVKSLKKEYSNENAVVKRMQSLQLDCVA
Description: RIPK1-ADP-Glo enzymatic assay. The assay is classed as biochemical. The following applies: 25 nM GST-RIPK1, 300 μM ATP, 3 μM dephosphorylated-MBP; 30 minutes pre-incubation, 150 minutes reaction; ten-point titration. The procedure, abridged:
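Ten-point 1:3 titrations from 100000 nM, 1% DMSO, were preincubated 30 min with 25 nM GST-RIPK1 (1-327) before starting with 300 μM ATP plus 3 μM dephosphorylated MBP; 150 min reaction. ADP-Glo luminescence measured ATP-to-ADP conversion; EC50 by four-parameter sigmoidal regression.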
`N#Cc1cc(N2CCC(F)(C(=O)N3C[C@@H]4C[C@H]3c3cncc(C#N)c3O4)CC2)ncn1` [Compound 1-52, (2S,5S)-4-(1-(6-cyanopyrimidin-4-yl)-4-fluoropiperidine-4-carbonyl)-2,3,4,5-tetrahydro-2,5-methanopyrido[3,4-f][1,4]oxazepine-9-carbonitrile]: the IC50 stood at 116 nM. As to `COc1cc(N2CCC(F)(C(=O)N3C[C@@H]4C[C@H]3c3cncc(C#N)c3O4)CC2)ncn1` [Compound 1-53, (2S,5S)-4-(4-fluoro-1-(6-methoxypyrimidin-4-yl)piperidine-4-carbonyl)-2,3,4,5-tetrahydro-2,5-methanopyrido[3,4-f][1,4]oxazepine-9-carbonitrile], the IC50 was determined as 226 nM. Regarding `N#Cc1cncc2c1O[C@H]1C[C@@H]2N(C(=O)C2(F)CCN(C(=O)c3ccccc3)CC2)C1` [Compound 1-54, (2S,5S)-4-(1-benzoyl-4-fluoropiperidine-4-carbonyl)-2,3,4,5-tetrahydro-2,5-methanopyrido[3,4-f][1,4]oxazepine-9-carbonitrile], the IC50 was 116 nM. In the case of `N#Cc1cncc2c1O[C@H]1C[C@@H]2N(C(=O)C2(F)CCN(c3ccnc4c(F)cnn34)CC2)C1` [Compound 1-55, (2S,5S)-4-(4-fluoro-1-(3-fluoropyrazolo[1,5-a]pyrimidin-7-yl)piperidine-4-carbonyl)-2,3,4,5-tetrahydro-2,5-methanopyrido[3,4-f][1,4]oxazepine-9-carbonitrile], the IC50 was 18 nM. For the compound `COc1ccnc(N2CCC(F)(C(=O)N3C[C@@H]4C[C@H]3c3cncc(C#N)c3O4)CC2)n1` [Compound 1-56, (2S,5S)-4-(4-fluoro-1-(4-methoxypyrimidin-2-yl)piperidine-4-carbonyl)-2,3,4,5-tetrahydro-2,5-methanopyrido[3,4-f][1,4]oxazepine-9-carbonitrile], the IC50 amounted to 41 nM. For `N#Cc1cncc2c1O[C@H]1C[C@@H]2N(C(=O)C2(F)CCN(c3ncnc4scnc34)CC2)C1` [Compound 1-57, (2S,5S)-4-(4-fluoro-1-(thiazolo[5,4-d]pyrimidin-7-yl)piperidine-4-carbonyl)-2,3,4,5-tetrahydro-2,5-methanopyrido[3,4-f][1,4]oxazepine-9-carbonitrile], the IC50 is 35 nM. As to `N#Cc1cncc2c1O[C@H]1C[C@@H]2N(C(=O)C2(F)CCN(c3nccn4ncnc34)CC2)C1` [Compound 1-58, (2S,5S)-4-(1-([1,2,4]triazolo[1,5-a]pyrazin-8-yl)-4-fluoropiperidine-4-carbonyl)-2,3,4,5-tetrahydro-2,5-methanopyrido[3,4-f][1,4]oxazepine-9-carbonitrile], the IC50 turned out to be 74 nM. Consider `CC1OCCC1(C)C(=O)N1C[C@@H]2C[C@H]1c1cncc(C#N)c1O2` (stereo partly drawn) [Compound 1-59, (2S,5S)-4-(2,3-dimethyltetrahydrofuran-3-carbonyl)-2,3,4,5-tetrahydro-2,5-methanopyrido[3,4-f][1,4]oxazepine-9-carbonitrile], for which the IC50 turned out to be 587 nM. Take `N#Cc1cncc2c1O[C@H]1C[C@@H]2N(C(=O)C2(C(F)F)CCCO2)C1` (stereo partly drawn) [Compound 1-60, (2S,5S)-4-(2-(difluoromethyl)tetrahydro-furan-2-carbonyl)-2,3,4,5-tetrahydro-2,5-methanopyrido[3,4-f][1,4]oxazepine-9-carbonitrile]: the IC50 amounted to 230 nM.

With `N#Cc1cncc2c1O[C@H]1C[C@@H]2N(C(=O)C23CCC(CC2)CC3)C1` [Compound 1-61, (2S,5S)-4-(bicyclo[2.2.2]octane-1-carbonyl)-2,3,4,5-tetrahydro-2,5-methanopyrido[3,4-f][1,4]oxazepine-9-carbonitrile], the IC50 was found to be 34 nM. As to `N#Cc1cncc2c1O[C@H]1C[C@@H]2N(C(=O)C23CCC(F)(CC2)CC3)C1` [Compound 1-63, (2S,5S)-4-(4-fluorobicyclo[2.2.2]octane-1-carbonyl)-2,3,4,5-tetrahydro-2,5-methanopyrido[3,4-f][1,4]oxazepine-9-carbonitrile], the IC50 amounted to 58 nM. For the compound `COC1(C(=O)N2C[C@@H]3C[C@H]2c2cncc(C#N)c2O3)CCCC1` [Compound 1-65, (2S,5S)-4-(1-methoxycyclopentane-1-carbonyl)-2,3,4,5-tetrahydro-2,5-methanopyrido[3,4-f][1,4]oxazepine-9-carbonitrile], the concentration for half-maximal inhibition (IC50) amounted to 76 nM.

As for `N#Cc1cncc2c1O[C@H]1C[C@@H]2N(C(=O)C23CC(C(F)(F)F)(CO2)C3)C1` [Compound 1-66, (2S,5S)-4-(4-(trifluoromethyl)-2-oxabicyclo[2.1.1]hexane-1-carbonyl)-2,3,4,5-tetrahydro-2,5-methanopyrido[3,4-f][1,4]oxazepine-9-carbonitrile], the IC50 stood at 514 nM.

Take `CC(C)(Cc1ccccc1)C(=O)N1C[C@@H]2C[C@H]1c1cncc(C#N)c1O2` [Compound 1-68, (2S,5S)-4-(2,2-dimethyl-3-phenylpropanoyl)-2,3,4,5-tetrahydro-2,5-methanopyrido[3,4-f][1,4]oxazepine-9-carbonitrile]: the IC50 is 259 nM. With `CC1(C(=O)N2C[C@@H]3C[C@H]2c2cncc(C#N)c2O3)CC2CCC1C2` (stereo partly drawn) [Compound 1-69, (2S,5S)-4-(2-methylbicyclo[2.2.1]heptane-2-carbonyl)-2,3,4,5-tetrahydro-2,5-methanopyrido[3,4-f][1,4]oxazepine-9-carbonitrile], the IC50 is 77 nM. In the case of `N#Cc1cncc2c1O[C@H]1C[C@@H]2N(C(=O)C2(F)CCN(c3cc(-c4ccccc4)ncn3)CC2)C1` [Compound 1-70, (2S,5S)-4-(4-fluoro-1-(6-phenylpyrimidin-4-yl)piperidine-4-carbonyl)-2,3,4,5-tetrahydro-2,5-methanopyrido[3,4-f][1,4]oxazepine-9-carbonitrile] it was 35 nM; in that of `N#Cc1cncc2c1O[C@H]1C[C@@H]2N(C(=O)C2(F)CCN(c3cc(C4CC4)ncn3)CC2)C1` [Compound 1-71, (2S,5S)-4-(1-(6-cyclopropylpyrimidin-4-yl)-4-fluoropiperidine-4-carbonyl)-2,3,4,5-tetrahydro-2,5-methanopyrido[3,4-f][1,4]oxazepine-9-carbonitrile], 232 nM. On to `N#Cc1cncc2c1O[C@H]1C[C@@H]2N(C(=O)C2(F)CCN(c3ccnc(Cl)c3)CC2)C1` [Compound 1-72, (2S,5S)-4-(1-(2-chloropyridin-4-yl)-4-fluoropiperidine-4-carbonyl)-2,3,4,5-tetrahydro-2,5-methanopyrido[3,4-f][1,4]oxazepine-9-carbonitrile], for which the IC50 is 35 nM. Regarding `CC12COC(C(=O)N3C[C@@H]4C[C@H]3c3cncc(C#N)c3O4)(C1)C2` [Compound 1-73, (2S,5S)-4-(4-methyl-2-oxabicyclo[2.1.1]hexane-1-carbonyl)-2,3,4,5-tetrahydro-2,5-methanopyrido[3,4-f][1,4]oxazepine-9-carbonitrile], the IC50 is 501 nM. `CCC1(C(=O)N2C[C@@H]3C[C@H]2c2cncc(C#N)c2O3)CC1` [Compound 1-74, (2S,5S)-4-(1-ethylcyclopropane-1-carbonyl)-2,3,4,5-tetrahydro-2,5-methanopyrido[3,4-f][1,4]oxazepine-9-carbonitrile]: the IC50 worked out at 347 nM. With `N#Cc1cncc2c1O[C@H]1C[C@@H]2N(C(=O)C2(C(F)(F)F)CC2)C1` [Compound 1-75, (2S,5S)-4-(1-(trifluoromethyl)cyclopropane-1-carbonyl)-2,3,4,5-tetrahydro-2,5-methanopyrido[3,4-f][1,4]oxazepine-9-carbonitrile], the IC50 was 545 nM.
